In paper PMC13336041, “Streptavidins Coordinate Biotin Sequestration and Self‐Resistance Within a Biotin‐Pathway Antibiotic Network” (Advanced Science, 2026) one finds Ki, IC50 and stoichiometry N data, which are given here for two compounds.

One assay has as its target BioA (EcBioA) (Escherichia coli, UniProt P12995). The experiment in a line: BioA-BioD coupled enzyme assay with KAPA as substrate, LC-MS readout of desthiobiotin (IC50 […]). The format is biochemical.
Assay [1] has as its target BioA derived from S. lydicus (SlBioA). The experiment in a line: BioA-BioD coupled enzyme assay with KAPA as substrate, LC-MS readout. Format: biochemical, Streptomyces lydicus.
Assay [2] deals with streptavidin 2 (Sav2), residues 45-169 (S. avidinii). The experiment in a line: not stated; in solution; method not given.

BioA (EcBioA), sequence (P12995 whole entry): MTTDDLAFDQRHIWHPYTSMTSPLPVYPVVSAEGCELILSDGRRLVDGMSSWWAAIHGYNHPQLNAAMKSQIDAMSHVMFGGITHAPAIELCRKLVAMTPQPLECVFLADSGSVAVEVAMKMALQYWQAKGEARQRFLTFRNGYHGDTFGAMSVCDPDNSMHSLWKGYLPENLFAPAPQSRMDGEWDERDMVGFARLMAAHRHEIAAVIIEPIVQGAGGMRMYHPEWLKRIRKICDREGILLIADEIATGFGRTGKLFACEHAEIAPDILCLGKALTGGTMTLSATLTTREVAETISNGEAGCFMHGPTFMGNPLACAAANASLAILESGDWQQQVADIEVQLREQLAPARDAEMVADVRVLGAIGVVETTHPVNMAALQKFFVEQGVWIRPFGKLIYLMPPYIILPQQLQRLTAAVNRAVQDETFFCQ

Consider `C[C@H](N)C(=O)CCCC[C@@H](C)C(=O)O` [compound 5, α-methyl-KAPA], for which the inhibition constant (Ki) on BioA (EcBioA) is 14.9 µM. Moreover, the IC50 in assay [1] worked out at 6.5 µM.

The compound “streptavidin 2 (Sav2), residues 45-169 (domain or fragment)” came in with a stoichiometry N in assay [2] of 4.

One may read the Ki as the dissociation constant of the complex between target and ligand, obtained from inhibition or displacement. One may read the IC50 as the concentration that inhibits the measured activity by half. Read a low IC50 as greater potency. For orientation: stoichiometry N means the number of molecules, sites or subunits per partner or assembly.
